Experiment: xn = mol fraction of the nth substance listed
Conditions: 101.33 kPa

CCCCN(CCCC)CCCC + CO
viscosity [mPa·s]
Conditions	298.15 K	303.15 K	308.15 K	313.15 K	318.15 K	323.15 K
x1 = 0.1015	–	0.881	–	0.778	–	0.675
x1 = 0.1093	1.013	–	0.889	–	0.735	–
x1 = 0.1551	–	1.008	–	0.896	–	0.787
x1 = 0.2027	1.21	–	1.07	–	0.919	–
x1 = 0.2166	–	1.106	–	0.994	–	0.895
x1 = 0.256	1.278	–	1.132	–	0.992	–
x1 = 0.2933	–	1.177	–	1.068	–	0.984
x1 = 0.3035	1.319	–	1.169	–	1.036	–
x1 = 0.3493	–	1.208	–	1.101	–	1.027
x1 = 0.362	1.353	–	1.197	–	1.066	–
x1 = 0.404	1.369	–	1.208	–	1.073	–
x1 = 0.4195	–	1.228	–	1.12	–	1.044
x1 = 0.4528	1.383	–	1.215	–	1.07	–
x1 = 0.4998	–	1.235	–	1.118	–	1.03
x1 = 0.5101	1.394	–	1.216	–	1.054	–
x1 = 0.5426	–	1.235	–	1.108	–	1.011
x1 = 0.5541	1.4	–	1.213	–	1.036	–
x1 = 0.604	1.404	–	1.208	–	1.014	–
x1 = 0.6175	–	1.232	–	1.093	–	0.974
x1 = 0.6459	–	1.233	–	1.085	–	0.961
x1 = 0.6609	1.408	–	1.2	–	0.989	–
x1 = 0.6925	1.409	–	1.194	–	0.977	–
x1 = 0.7057	–	1.224	–	1.069	–	0.932
x1 = 0.7264	1.409	–	1.188	–	0.966	–
x1 = 0.763	–	1.217	–	1.052	–	0.911
x1 = 0.8027	1.405	–	1.172	–	0.95	–
x1 = 0.8237	–	1.205	–	1.039	–	0.897
x1 = 0.8877	–	1.19	–	1.022	–	0.885
x1 = 0.8925	1.395	–	1.151	–	0.941	–
x1 = 0.9438	–	1.178	–	1.011	–	0.873

Source: the CheMixHub viscosity set
